{"source": "patent US20120171660A1", "about": "“METHOD FOR SCREENING AND PURIFYING ENTEROVIRUS, METHOD FOR MASS-PRODUCING ENTEROVIRUS, AND METHOD FOR MANUFACTURING ENTEROVIRUS VACCINE” (priority 2011, published 2012)", "key": {"EV71 [1]": {"tested_on": "EV71", "assay": "ELISA, EV71 binding to monosaccharide-PAA coated plate", "design": "species or system Enterovirus 71", "settings": "OD450; for specific binding to EV71 (FIG. 1D): 10^6 PFU EV71, plate coated with monosaccharide-PAA, versus control without EV71", "procedure": "ELISA was also performed to detect the binding activities between EV71 and monosaccharides in the present embodiment, and the process of ELISA of the present embodiment is similar to that of Embodiment 1.\n(§1) In addition, specific bindings between different enteroviruses and monosaccharides were also detected. First, 10^6 PFU of enteroviruses, EV71, Coxsackievirus A16 (CA16), Coxsackievirus B3 (Cox B3, CB3), and Coxsackievirus B2 (Cox B2, CB2), were added in to a 96-well plate coated with glucose-PAA and galactose-PAA."}, "EV71 on SK-N-SH cells": {"tested_on": "EV71 on SK-N-SH cells", "assay": "Plaque assay, EV71 replication on SK-N-SH cells with monosaccharides", "assay_type": "cell-based, Enterovirus 71", "settings": "EV71 incubated with 0.625 M, 0.125M, 0.25M sugar, 72 hours; for production of EV71 on SK-N-SH cells, virus titer (FIG. 4A): 1 hour at 37° C., no wash; for production of EV71 on SK-N-SH cells, absorption stage (FIG. 4B): unbound viruses washed away by PBS after 1 hour", "procedure": "Plaque assay was used to understand the relation between the monosaccharides and the replication of EV71 in the present embodiment.\nHost cells, SK-N-SH cells (2×10^5 cells/well), were seeded in a 24-well plate, and incubated for 16-18 hours to form a monolayer cell. SK-N-SH cells were infected with EV71, which was incubated with different concentrations of glucose, galactose or N-acetylgalactosamine (0.625 M, 0.125M, and 0.25M). After 1 hour incubation at 37° C., DMEM with 1.6% methylcellulose and 2% FBS was added to incubate at 37° C. for 72 hours.\nFirst, SK-N-SH cells were infected with EV71, which were incubated with different concentrations of glucose, galactose or N-acetylgalactosamine (0.625 M, 0.125M, and 0.25M). After 1 hour incubation at 37° C., unbound viruses were washed away by PBS, DMEM with 1.6% methylcellulose and 2% FBS was added to incubate at 37° C. for 72 hours.\nIn addition, SK-N-SH cells were infected with EV71 in a glucose-containing medium. After 1 hour incubation at 37° C., viruses, which were unbound on the 24-well plate were washed away with PBS. Then, the infected host cells were incubated in a medium containing 0.25M glucose or galactose (supplemented with 1.6% methylcellulose and 2% FBS) at 37° C. for 72 hours."}, "[2]": {"biological_target": "EV71 binding to galectin-1 (Homo sapiens, UniProt P09382)", "sequence (P09382 2-135 limits assumed)": "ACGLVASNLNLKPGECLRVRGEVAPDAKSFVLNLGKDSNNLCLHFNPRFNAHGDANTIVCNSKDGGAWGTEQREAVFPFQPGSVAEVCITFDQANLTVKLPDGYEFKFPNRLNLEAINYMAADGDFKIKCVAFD", "assay": "ELISA, competition of monosaccharides with EV71 binding to galectin-1", "design": "species or system Enterovirus 71", "settings": "EV71 incubated with the sugar at different concentrations at 4° C. for 2 hours; galectin-1 coated plate", "procedure": "ELISA was used to detect the competition between monosaccharides and EV71 or lectins. First, EV71 was incubated in a medium supplemented with galactose, glucose, N-acetyl galactosamines, sucrose, or mannose with different concentration (conc.) at 4° C. for 2 hours. […] It is because the monosaccharides bound on the EV71 may first bind to lectins, so the binding between lectins and EV71 may further be inhibited."}, "EV71 [3]": {"tested_on": "EV71", "assay": "ELISA, biotin-labeled monosaccharide-PAA binding to EV71 captured on anti-EV71 antibody plate", "design": "species or system Enterovirus 71", "settings": "OD450; for binding of EV71 to monosaccharide (FIG. 1A): 10^6 PFU of EV71, biotin-labeled monosaccharide-PAA, compared to control without viruses or 10^6 PFU Dengue viruses; for binding activity between EV71 and monosaccharide versus amount of EV71 (FIG. 1B): 10 fold serial dilution of EV71 from 10^6 PFU to 10^2 PFU", "procedure": "Enzyme-linked immunosorbent assay (ELISA) was used to detect the binding activities between EV71 and monosaccharides in the present embodiment. First, EV71 was added into a 96-well plate (Genesis, Taiwan) and bound to anti-EV71 antibody coated on the 96-well plate. Then, biotin-labeled monosaccharide polymers, such as glucose-PAA (polyacrylamide), mannose-PAA, galactose-PAA, N-acetyl-galactosamine-PAA (GalNAc-PAA), and N-acetyl-glucosamine-PAA (GlcNAc-PAA) were added into the 96-well plate, and reacted with EV71 at room temperature."}, "[4]": {"tested_on": "Coxsackievirus B2 (Cox B2, CB2)", "assay": "ELISA, CB2 binding to monosaccharide-PAA coated plate", "settings": "10^6 PFU; plate coated with glucose-PAA or galactose-PAA; OD450", "procedure": "as §1"}, "[5]": {"tested_on": "Coxsackievirus A16 (CA16)", "assay": "ELISA, CA16 binding to monosaccharide-PAA coated plate", "settings": "10^6 PFU; plate coated with glucose-PAA or galactose-PAA; OD450", "procedure": "as §1"}, "[6]": {"tested_on": "Coxsackievirus B3 (Cox B3, CB3)", "assay": "ELISA, CB3 binding to monosaccharide-PAA coated plate", "settings": "10^6 PFU; plate coated with glucose-PAA or galactose-PAA; OD450", "procedure": "as §1"}, "CA16": {"tested_on": "CA16", "assay": "ELISA, CA16 binding to galectin-1 coated plate", "design": "species or system Coxsackievirus A16", "settings": "10^6 PFU of virus, OD450"}, "dengue virus (DV)": {"tested_on": "dengue virus (DV)", "assay": "ELISA, dengue virus binding to galectin-1 coated plate", "settings": "10^6 PFU of virus, OD450", "experimental": "In addition, 106 PFU of different viruses including EV71, CA16, influenza virus (Flu) or dengue virus (DV) were added into a 96-well plate coated with galactin-1. Then, anti-EV71 antibody and HRP-conjugated goat anti-mouse IgG antibody were sequentially added into the 96-well plate."}, "EV71 [7]": {"tested_on": "EV71", "assay": "ELISA, EV71 binding to galectin-1 coated plate", "design": "species or system Enterovirus 71", "procedure": "Except the aforementioned lectins, the binding activity between EV71 and mammalian lectin such as galectin-1 was also detected in the present embodiment. First, a different amount of EV71 (10 fold serial dilution from 10^6 PFU to 10^4 PFU) was incubated in a 96-well plate coated with galectin-1.\nIt means that the monosaccharides such as glucose may first bind to EV71 during the formation of EV71 viral particles, and the monosaccharides bound on EV71 may further participate in the binding between EV71 and galactin-1."}, "influenza virus (Flu)": {"tested_on": "influenza virus (Flu)", "assay": "ELISA, influenza virus binding to galectin-1 coated plate", "settings": "10^6 PFU of virus, OD450"}}}
{"compound": "CC(=O)N[C@H]1C(O)O[C@H](CO)[C@H](O)[C@@H]1O", "note": "(some centres unmarked) [N-acetyl-galactosamine]", "values": [{"measurement": "specific binding to EV71 (FIG. 1D)", "setting": "EV71 [1]", "result": "can specifically bind"}, {"measurement": "production of EV71 on SK-N-SH cells, virus titer (FIG. 4A)", "setting": "EV71 on SK-N-SH cells", "result": "enhance the production of EV71"}, {"measurement": "production of EV71 on SK-N-SH cells, absorption stage (FIG. 4B)", "setting": "EV71 on SK-N-SH cells", "result": "enhance the production of EV71"}, {"measurement": "effect on binding between EV71 and lectins (galectin-1) by competition (FIG. 3)", "setting": "[2]", "result": "partially inhibited"}, {"measurement": "binding of EV71 to monosaccharide (FIG. 1A)", "setting": "EV71 [3]", "result": "can bind"}, {"measurement": "binding activity between EV71 and monosaccharide versus amount of EV71 (FIG. 1B)", "setting": "EV71 [3]", "result": "enhanced as the amount of EV71 was increased"}]}
{"compound": "CC(=O)N[C@H]1C(O)O[C@H](CO)[C@@H](O)[C@@H]1O", "note": "(some centres unmarked) [N-acetyl-glucosamine]", "values": [{"measurement": "specific binding to EV71 (FIG. 1D)", "setting": "EV71 [1]", "result": "can specifically bind"}]}
{"compound": "O=C[C@H](O)[C@@H](O)[C@@H](O)[C@H](O)CO", "note": "[galactose]", "values": [{"measurement": "binding activity to CB2 (FIGS. 1E, 1F)", "setting": "[4]", "result": "do not show any binding activity"}, {"measurement": "specific binding to EV71 (FIG. 1D)", "setting": "EV71 [1]", "result": "can specifically bind"}, {"measurement": "binding activity to EV71 (FIGS. 1E, 1F)", "setting": "EV71 [1]; 10^6 PFU, plate coated with glucose-PAA or galactose-PAA", "result": "high binding activity"}, {"measurement": "production of EV71 on SK-N-SH cells, virus titer (FIG. 4A)", "setting": "EV71 on SK-N-SH cells", "result": "enhance the production of EV71"}, {"measurement": "production of EV71 on SK-N-SH cells, absorption stage (FIG. 4B)", "setting": "EV71 on SK-N-SH cells", "result": "enhance the production of EV71"}, {"measurement": "specific binding to CA16 (FIGS. 1E, 1F)", "setting": "[5]", "result": "can specifically bind"}, {"measurement": "effect on binding between EV71 and lectins (galectin-1) by competition (FIG. 3)", "setting": "[2]", "result": "partially inhibited"}, {"measurement": "binding of EV71 to monosaccharide (FIG. 1A)", "setting": "EV71 [3]", "result": "can bind"}, {"measurement": "binding activity between EV71 and monosaccharide versus amount of EV71 (FIG. 1B)", "setting": "EV71 [3]", "result": "enhanced as the amount of EV71 was increased"}, {"measurement": "binding activity to CB3 (FIGS. 1E, 1F)", "setting": "[6]", "result": "do not show any binding activity"}]}
{"compound": "galactin-1: mammalian lectin such as galectin-1, coated on 96-well plate", "values": [{"measurement": "binding of galectin-1 to CA16 (FIG. 2D)", "setting": "CA16", "result": "specifically binds"}, {"measurement": "binding of galectin-1 to dengue virus (FIG. 2D)", "setting": "dengue virus (DV)", "result": "does not bind"}, {"measurement": "binding to galectin-1 of EV71 incubated in sugar-free medium (FIG. 2E)", "setting": "EV71 [7]; 10^6 PFU EV71 incubated in glucose-free medium", "result": "cannot bind"}, {"measurement": "binding of galectin-1 to EV71 (FIG. 2D)", "setting": "EV71 [7]; 10^6 PFU of virus, galectin-1 coated plate, OD450", "result": "specifically binds"}, {"measurement": "binding of EV71 to galectin-1 (FIG. 2C)", "setting": "EV71 [7]; EV71 10 fold serial dilution from 10^6 PFU to 10^4 PFU, bound amount increases with EV71 added", "result": "binds"}, {"measurement": "binding of galectin-1 to influenza virus (FIG. 2D)", "setting": "influenza virus (Flu)", "result": "does not bind"}]}
